Assay results taken from patent US10959428B2, “Hematophagous arthropod repellent composition” (WOOJUNG BIO INC., priority 2017, dated 2021).

Test system: adult Aedes aegypti
Assay: cage-in-arm test, complete protection time (CPT)
Type: in vivo
Conditions: 4 mg, adult Aedes aegypti
Protocol: For determining the repellency of prepared samples against adults of Aedes aegypti and Aedes albopicus, a cage-in-arm test was carried out as a method for exposure to skin. Namely, on a back of the hand of a rubber glove, a hole with diameter of 5 cm was created, and, onto an exposed back of the testees, various samples prepared by dissolution in 100 μl of ethanol were applied, and then the skin test was carried out. The testees were healthy males between the ages of 21 and 40. The control group was treated with 100 μl of ethanol only. Female adults (5 to 8 day old) of Aedes aegypti or Aedes albopicus (250 to 300 mosquitoes) were added to a cage for growing adult mosquitoes (25×25×25 cm^3), and adapted to the indoor conditions for 12 to 24 hours before starting the test. When the upper arm of the control group is exposed for 1 minute and at least 6 mosquitoes sit on the upper arm or show a bloodsucking behavior, it was determined as sufficient biting pressure, and then the repellency test was carried out. […] The time period between the time point with initial treatment of a material and the time point at which 2 or more mosquitoes continuously sit on the treatment area or show the bloodsucking behavior was defined as complete protection time (CPT). Furthermore, for obtaining the repellency with regard to concentration, exposure was made for a constant time period regardless of the above and the repellency was calculated by using the following formula. Accordingly, the effect was compared among each test samples. All tests were carried out in triplicate. Repellency %=(Number of insects showing bloodsucking behavior in non-treatment group−Number of insects showing bloodsucking behavior in treatment group)/Number of insects showing bloodsucking behavior in non-treatment group)×100 <Tick Repellency>

Row | Compound | CPT [min]
1 | C=CCc1ccc(O)c(OC)c1 [Eugenol, eugenol, reference compound] | 10
2 | COc1cc(C=O)ccc1O [Vanillin] | 30
3 | COc1cc(CCC(C)=O)ccc1O [Vanillyl acetone, vanillyl acetone] | 10
4 | COc1cc(C=O)ccc1OC(=O)OC(C)(C)C [tert-butyl 4-formyl-2-methoxyphenyl carbonate] | 10
5 | vanillin isobutyrate | 45
